For orientation: boiling point means the temperature at which the vapour pressure of the liquid equals the pressure above it. In general, melting point refers to the temperature, or range, at which the solid turns liquid.

With `CC1COCc2cc3c(cc21)C(C)(C)C(C)C3(C)C` (stereo not given), the boiling point was determined as 325 °C, the log10 vapour pressure (mmHg) was -3.26 and the melting point was -5 °C.
Compound `CCCCOc1ccc(C(=O)OCCN(CC)CC)cc1` returned a melting point of 146 °C.
With `O[C@@H]1CCCC[C@H]1O`, the melting point was found to be 102 °C.
Take `CCOP(=O)([O-])C(N)=O.[NH4+]`: the melting point came out at 175 °C.
The compound `NS(=O)(=O)c1ccc(SCCCO)c(F)c1` yielded a melting point of 110 °C.
`CCC(C#N)c1ccccc1` (stereo not given): the boiling point stood at 241 °C.
`Clc1cc(Cl)c2c(Cl)ccc(Cl)c2c1` gave a log10 Koa of 8.28.
`CC(C)(C(N)=O)n1nc2ccccc2n1`: the melting point is 174 °C.
With `c1ccc2cc(Nc3ccc(Nc4ccc5ccccc5c4)cc3)ccc2c1`, the melting point worked out at 235 °C.
`FC(F)OC(C(F)(F)F)C(F)(F)F` registered a boiling point of 42.1 °C and a log10 vapour pressure (mmHg) of 2.59.
Consider `Oc1cc(O)c(Cl)cc1Cl`, for which the boiling point came to 254 °C and the melting point came to 113 °C.
As for `C=COCCOCCOC=C`, the boiling point worked out at 198 °C and the log10 vapour pressure (mmHg) is -1.64.
The compound `CCCC(C)(C)C(C)=O` showed a boiling point of 149 °C.
Compound `CCCOC(=O)NCCCN(C)C.Cl` registered a log10 vapour pressure (mmHg) of -6.54 and a melting point of 64.2 °C.
Compound `CCc1ccc(O)cc1O` registered a melting point of 98.5 °C.
In the case of `C[S@](=O)c1ccccc1`, the boiling point was found to be 264 °C and the melting point was found to be 32 °C.
In turn, `CCCCCCCCCCCCCCCCCCCCCCCCCCCC(=O)O` returned a melting point of 90.9 °C.
Take `CC(CCl)[N+](=O)[O-]` (stereo not given): the boiling point stood at 172 °C.
`CC(=O)C(Cl)Cl`: the boiling point was determined as 120 °C and the log10 vapour pressure (mmHg) worked out at 1.43.
`CCOP(=O)(SC(C)CC)SC(C)CC` (stereo not given) came in with a log10 vapour pressure (mmHg) of -3.05.
Compound `COc1ccc(C)cc1` returned a boiling point of 176 °C and a melting point of -32 °C.
`ClCCI` yielded a boiling point of 140 °C and a melting point of -15.6 °C.
The corresponding values for `Fc1ccc(N=C=S)cc1` are 228 °C and 27 °C.
`ClCc1ccc(Cl)cc1` gave a boiling point of 223 °C and a melting point of 31 °C.
`CN(C)CCc1c[nH]c2cccc(O)c12` came in with a melting point of 174 °C.
On to `COc1cc(C)oc(=O)c1`, for which the melting point came out at 86 °C.
Regarding `Clc1ccccc1C(c1ccccc1)(c1ccccc1)n1ccnc1`, the melting point came to 148 °C.
Take `Oc1ccc2c(c1)[nH]c1ccccc12`: the melting point turned out to be 272 °C.
In turn, `Nc1ccc([N+](=O)[O-])cn1` came in with a melting point of 187 °C.
Compound `O=[N+]([O-])c1ccc(C=NO)cc1` registered a melting point of 128 °C.
In the case of `CCCN(CC)CC1COC2(CCC(C(C)(C)C)CC2)O1` (stereo not given), the log10 vapour pressure (mmHg) was -3.89.
In turn, `CC1=C(O)C(=O)C(C)O1` (stereo not given) had a melting point of 80.5 °C.
For `Cc1cc(-n2nc3ccc(Cl)cc3n2)c(O)c(C(C)(C)C)c1`, the ready biodegradability entry was “not readily biodegradable”.
Turning to `Nc1nc(Cl)cc(Cl)n1`, the melting point was 220 °C.
As to `CCC(=O)OC(C)(C)C`, the boiling point turned out to be 118 °C.
`Cc1cc(C)nc(NC(=O)NS(=O)(=O)c2ccccc2C(=O)O)n1` had a log10 Koc (L/kg) of 1.8.
The compound `CCOC(=O)C(C)Oc1ccc(Oc2cnc3cc(Cl)ccc3n2)cc1` (stereo not given) gave a log10 Koc (L/kg) of 2.71, a log10 vapour pressure (mmHg) of -8.19 and a melting point of 84.2 °C.
For the compound `COC(=O)c1ccc(O)cc1`, the log10 Koa is 8.57 and the melting point worked out at 131 °C.
Turning to `C#CC(C)(O)C(C)C` (stereo not given), the boiling point was 134 °C.
For `ClC1CCCC1`, the boiling point came to 114 °C.
In turn, `CC(C)=CCCC(C)=CC(=O)O` showed a boiling point of 250 °C.
Compound `CCc1cccc(C)c1N(C(=O)CCl)[C@@H](C)COC` displayed a boiling point of 282 °C.
`O=C(O)CCCCCCCF`: the melting point was found to be 35 °C.
On to `ClCC(Cl)(Cl)C(Cl)(Cl)Cl`, for which the boiling point worked out at 216 °C and the melting point came to 26 °C.
